Source: publication PMC8759726, “Click chemistry based synthesis, cytotoxic activity and molecular docking of novel triazole-thienopyrimidine hybrid glycosides targeting EGFR” (Journal of Enzyme Inhibition and Medicinal Chemistry, 2021)

What was measured:
[1] = biological target: mutant EGFR kinase type L858R (Homo sapiens, UniProt P00533, L858R); experiment: In vitro kinase inhibition assay (Kinase-Glo Max luminescence); details: IC50 (mean ± SEM) (µM) EGFR, mean of three values ± SEM
Experimental: The master mixture (6 μl 5× kinase buffer + 1 μl ATP (500 μM)+1 μl 50× PTK substrate + 17 μl water) was prepared then, 25 μl to every well was added. Five microlitres of inhibitor solution of each well labelled as “Test Inhibitor” was added. However, for the “Positive Control” and “Blank”, 5 μl of the same solution without inhibitor (inhibitor buffer) was added. Three millilitres of 1× kinase buffer by mixing 600 μl of 5× kinase buffer with 2400 μl water was prepared. […] To the wells designated as “Blank”, 20 μl of 1× kinase buffer was added. EGFR enzyme on ice was thawed. Upon first thaw, briefly the tube containing enzyme was spun to recover full content of the tube. The amount of EGFR required for the assay and dilute enzyme to 1 ng/μl with 1× kinase buffer was calculated. Moreover, the remaining undiluted enzyme in aliquots was stored at –80 °C. The reaction was initiated by adding 20 μl of diluted EGFR enzyme to the wells designated “Positive Control” and “Test Inhibitor Control”, after that it was incubated at 30 °C for 40 min. After the 40 minutes’ reaction, 50 μl of Kinase-Glo Max reagent was added to each well and the plate was covered with aluminium foil and incubated at room temperature for 15 min. Luminescence was measured using the microplate reader.

[2] = tested on: HCT-116 (human colorectal carcinoma) cell line; experiment: MTT cytotoxicity assay, HCT-116; assay type: cell-based; details: 48 h incubation, mean ± SD
Experimental: (§1) HCT-116 (human colorectal carcinoma) and MCF-7 (human breast adenocarcinoma) cell lines were purchased from the American Type Culture Collection (Rockville, MD) and maintained in Dulbecco’s Modified Eagle’s Medium (DMEM) supplemented with 10% heat-inactivated foetal bovine serum (FBS), 100 U ml^−1 penicillin, and 100 U ml^−1 streptomycin. The cells were grown at 37 °C in a humidified atmosphere of 5% CO2.
(§2) Cytotoxicity activity against HCT-116 and MCF-7 was estimated by the 3-[4,5-dimethyl-2-thiazolyl)-2,5-diphenyl-2H-tetrazolium bromide (MTT) assay. This test is based on MTT cleavage by mitochondrial dehydrogenases from viable cells[43]^,[44]. Cells were placed in a 96-well sterile microplate (5 × 10^4 cells well^−1) and incubated at 37 °C in serum-free media containing dimethyl sulphoxide (DMSO) and either a series of various concentrations of each compound or doxorubicin (positive control) for 48 h before the MTT assay. After incubation, the media were removed and 40 µl MTT (2.5 mg ml^−1) was added to each well. Incubation was resumed for an additional 4 h. The purple formazan dye crystals were solubilised with 200 µl DMSO. Absorbance was measured at 590 nm in a Spectra Max Paradigm Multi-Mode microplate reader (Molecular Devices, LLC, San Jose, CA). Relative cell viability was expressed as the mean percentage of viable cells compared to the untreated control cells.
(§3) All experiments were conducted in triplicate and repeated on three different days. All values were reported as mean ± SD. The IC50 values were determined by SPSS Inc. probit analysis (IBM Corp., Armonk, NY).

[3] = tested on: MCF-7 (human breast adenocarcinoma) cell line; experiment: MTT cytotoxicity assay, MCF-7; assay type: cell-based; details: 48 h incubation, mean ± SD
Experimental: as §1, §2, §3

Sequence of mutant EGFR kinase type L858R (P00533 25-1210 L858R): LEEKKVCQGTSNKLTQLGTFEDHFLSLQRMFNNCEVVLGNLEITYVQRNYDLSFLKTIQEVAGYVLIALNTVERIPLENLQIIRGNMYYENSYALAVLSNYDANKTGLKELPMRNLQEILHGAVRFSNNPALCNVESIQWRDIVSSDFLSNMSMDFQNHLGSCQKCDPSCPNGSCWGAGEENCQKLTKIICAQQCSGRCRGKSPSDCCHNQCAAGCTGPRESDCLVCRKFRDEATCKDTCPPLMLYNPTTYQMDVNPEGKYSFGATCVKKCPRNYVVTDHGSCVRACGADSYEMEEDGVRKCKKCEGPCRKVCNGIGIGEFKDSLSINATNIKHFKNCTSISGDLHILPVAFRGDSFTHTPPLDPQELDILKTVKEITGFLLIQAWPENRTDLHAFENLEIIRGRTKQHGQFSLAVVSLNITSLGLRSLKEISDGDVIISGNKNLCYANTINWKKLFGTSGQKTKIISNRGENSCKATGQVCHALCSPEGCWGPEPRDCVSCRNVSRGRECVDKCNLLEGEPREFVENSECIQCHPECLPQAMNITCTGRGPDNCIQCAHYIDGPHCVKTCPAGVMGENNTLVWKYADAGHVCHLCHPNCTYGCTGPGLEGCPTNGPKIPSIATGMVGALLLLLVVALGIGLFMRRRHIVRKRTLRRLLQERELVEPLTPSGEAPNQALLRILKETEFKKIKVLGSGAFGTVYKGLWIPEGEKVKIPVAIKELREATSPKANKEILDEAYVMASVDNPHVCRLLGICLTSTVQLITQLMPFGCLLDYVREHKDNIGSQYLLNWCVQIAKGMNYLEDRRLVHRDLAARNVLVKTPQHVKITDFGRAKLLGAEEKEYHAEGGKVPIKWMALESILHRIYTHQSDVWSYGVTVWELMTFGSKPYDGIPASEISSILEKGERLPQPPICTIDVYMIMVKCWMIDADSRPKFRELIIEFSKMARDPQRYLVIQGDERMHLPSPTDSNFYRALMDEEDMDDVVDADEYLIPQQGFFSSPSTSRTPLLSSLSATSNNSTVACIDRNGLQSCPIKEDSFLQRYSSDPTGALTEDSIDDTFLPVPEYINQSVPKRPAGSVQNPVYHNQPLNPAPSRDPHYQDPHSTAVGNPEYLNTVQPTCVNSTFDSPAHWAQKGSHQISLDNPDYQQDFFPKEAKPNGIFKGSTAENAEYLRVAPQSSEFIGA

SMILES | melting point [°C] | IC50 [1] [µM] | IC50 [2] [µM] | IC50 [3] [µM] | IC50 ([2]; Homo sapiens, HCT-116, 48 h) [µM] | IC50 ([3]; Homo sapiens, MCF7, 48 h) [µM]
CC(=O)OC[C@H]1O[C@@H](n2cc(CSc3nc4sc5c(c4c(=O)n3N)CCC5)nn2)[C@H](OC(C)=O)[C@@H](OC(C)=O)[C@@H]1OC(C)=O [Compound 4, 3-Amino-2-(((1-(2,3,4,6-tetra-O-acetyl-β-D-glucopyranosyl)-1H-1,2,3-triazol-4-yl)methyl)thio)-3,5,6,7-tetrahydro-4H-cyclopenta [4,5]thieno[2,3-d]pyrimidin-4-one] | 151 to 152 | – | – | – | – | –
CC(=O)OC1COC(n2cc(CSc3nc4sc5c(c4c(=O)n3N)CCC5)nn2)C(OC(C)=O)C1OC(C)=O [Compound 5, 3-Amino-2-(((1-(2,3,4-tri-O-acetyl-β-D-xyloopyranosyl)-1H-1,2,3-triazol-4-yl)methyl)thio)-3,5,6,7-tetrahydro-4H-cyclopenta[4,5]thieno[2,3-d]pyrimidin-4-one] | 155 to 156 | 0.13 | – | – | 8.6 ± 0.9 | 2.9 ± 0.4
CC(=O)OCC1OC(OCc2cn(CCSc3nc4sc5c(c4c(=O)n3N)CCC5)nn2)C(OC(C)=O)C(OC(C)=O)C1OC(C)=O [Compound 13, 3-Amino-2-(ethylylthio)-{2-[4-({[2,3,4,6-tetra-O-acetyl-β-D-glucopyranosyl]oxy}methyl)-1H-1,2,3-triazol-1-yl]ethoxy}-3,5,6,7-tetrahydro-4H-cyclopenta[4,5]thieno[2,3-d] pyrimidin-4-one] | 159 to 160 | – | – | – | 8.7 ± 1.6 | 4.2 ± 0.5
COc1cccc2c1C(=O)c1c(O)c3c(c(O)c1C2=O)C[C@@](O)(C(=O)CO)C[C@@H]3O[C@H]1C[C@H](N)[C@H](O)[C@H](C)O1 [Doxorubicin, reference compound] | – | – | – | – | 7.8 ± 0.7 | 6.7 ± 0.9
C#CCSc1nc2sc3c(c2c(=O)n1N)CCC3 [Compound 2, 3-Amino-2-(prop-2-yn-1-ylthio)-3,5,6,7-tetrahydro-4H-cyclopenta[4,5]thieno[2,3-d]pyrimidin-4-one] | 181 to 182 | 0.5 ± 1 | – | – | 8.6 ± 1.9 | 2.1 ± 0.3
Nn1c(SCc2cn([C@@H]3OC[C@@H](O)[C@H](O)[C@H]3O)nn2)nc2sc3c(c2c1=O)CCC3 [Compound 7, 3-Amino-2-(((1-(β-D-xylopyranosyl)-1H-1,2,3-triazol-4-yl)methyl)thio)-3,5,6,7-tetrahydro-4H-cyclopenta[4,5]thieno[2,3-d]pyrimidin-4-one] | 189 to 190 | 0.17 ± 0.43 | – | – | 8.7 ± 1.5 | 4.3 ± 0.8

Now from value to compound, other results behind:

melting point [°C] | IC50 [1] [µM] | SMILES | IC50 [2] [µM] | IC50 [3] [µM] | IC50 ([2]; Homo sapiens, HCT-116, 48 h) [µM] | IC50 ([3]; Homo sapiens, MCF7, 48 h) [µM]
156 to 157 | 0.013 | CC(=O)OCC1OC(OCc2cn(CCSc3nc4sc5c(c4c(=O)n3N)CCC5)nn2)C(OC(C)=O)C(OC(C)=O)C1OC(C)=O (stereo not drawn) [Compound 14] | 8.8 ± 1.1 | 4.5 ± 0.7 | – | –
159 to 160 | 0.02 | CC(=O)OCC1OC(OCc2cn(CCCCSc3nc4sc5c(c4c(=O)n3N)CCC5)nn2)C(OC(C)=O)C(OC(C)=O)C1OC(C)=O (stereo not drawn) [Compound 17] | 8.4 ± 1.1 | 5.2 ± 0.9 | – | –
153 to 154 | 0.017 | CC(=O)OC1COC(OCc2cn(CCSc3nc4sc5c(c4c(=O)n3N)CCC5)nn2)C(OC(C)=O)C1OC(C)=O (stereo not drawn) [Compound 15] | – | – | 8.9 ± 1.1 | 5 ± 0.9
163 to 164 | – | CC(=O)OCC1OC(OCc2cn(CCCCSc3nc4sc5c(c4c(=O)n3N)CCC5)nn2)C(OC(C)=O)C(OC(C)=O)C1OC(C)=O (stereo not drawn) [Compound 16] | – | – | 8.1 ± 0.8 | 5.3 ± 0.8
